We go through 16 compounds from patent US9938273B2 (Plexxikon Inc., priority 2015, dated 2018).

The target in assay [1] is T1, FLT3-D835Y (Homo sapiens, UniProt P36888, D835Y).
T1 construct: purchased Invitrogen PV3967
T1 sequence (P36888 27-993 D835Y): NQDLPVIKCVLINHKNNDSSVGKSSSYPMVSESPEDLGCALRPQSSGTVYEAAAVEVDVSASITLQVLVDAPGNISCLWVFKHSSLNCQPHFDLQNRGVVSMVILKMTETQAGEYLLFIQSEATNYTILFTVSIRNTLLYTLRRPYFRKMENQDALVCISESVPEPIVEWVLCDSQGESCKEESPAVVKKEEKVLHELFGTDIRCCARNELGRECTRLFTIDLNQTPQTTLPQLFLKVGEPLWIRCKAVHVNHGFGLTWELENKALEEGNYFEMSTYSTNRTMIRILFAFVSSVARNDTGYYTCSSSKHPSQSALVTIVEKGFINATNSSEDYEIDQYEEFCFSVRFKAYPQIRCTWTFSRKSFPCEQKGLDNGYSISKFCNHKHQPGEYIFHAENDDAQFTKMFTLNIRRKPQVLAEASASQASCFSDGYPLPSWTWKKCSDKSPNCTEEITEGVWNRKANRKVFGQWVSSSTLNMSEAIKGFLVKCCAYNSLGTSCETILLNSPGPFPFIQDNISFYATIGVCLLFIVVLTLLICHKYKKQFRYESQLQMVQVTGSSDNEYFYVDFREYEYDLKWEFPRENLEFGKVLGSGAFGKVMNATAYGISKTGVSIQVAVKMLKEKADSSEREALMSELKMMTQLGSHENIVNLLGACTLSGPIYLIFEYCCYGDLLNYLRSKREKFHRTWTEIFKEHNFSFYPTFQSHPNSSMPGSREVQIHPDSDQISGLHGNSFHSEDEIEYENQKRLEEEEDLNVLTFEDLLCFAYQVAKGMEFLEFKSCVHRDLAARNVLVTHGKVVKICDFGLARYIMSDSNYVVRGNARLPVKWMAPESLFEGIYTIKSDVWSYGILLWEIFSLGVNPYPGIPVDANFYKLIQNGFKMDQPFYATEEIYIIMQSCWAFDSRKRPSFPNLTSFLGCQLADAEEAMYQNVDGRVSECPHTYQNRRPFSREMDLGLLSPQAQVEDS
The experiment in a line: AlphaScreen kinase assay with recombinant enzyme, FLT3-D835Y. The conditions noted are these: 8pt, GMean. It is filed as biochemical. How it is done: (§1) In order to determine the effect of compounds on FLT3 catalytic activity, kinase assays using recombinant enzymes and AlphaScreen® technology have been established. The catalytic activity of c-kit activity was also measured to determine selectivity of the compounds. When the kinases are catalytically active, they phosphorylate a biotinylated peptide substrate on tyrosine residues. Using AlphaScreen® technology, the ability of the compounds to affect the catalytic activity of the kinases can be measured quantitatively. The peptide substrate is immobilized by the AlphaScreen® Streptavidin Donor beads and, upon phosphorylation by a tyrosine kinase, can bind to AlphaScreen® Anti-Phosphotyrosine (PY20) Acceptor beads. Upon excitation of these beads with laser light at 680 nm, singlet oxygen is produced. This singlet oxygen is rapidly quenched, unless the AlphaScreen® Anti-Phosphotyrosine (PY20) Acceptor beads are in close proximity, in which case a proximity signal can be measured at 580 nm. In the presence of catalytic activity, there is a very strong proximity signal. Selective kinase inhibitors affect a decrease in this proximity signal through a decrease in tyrosine phosphorylation of the peptide substrate.
(§2) The assay was performed as summarized below.
(§3) Poly (Glu4-Tyr) Peptide, biotin conjugate [Biotin-GG(EEEEY)10EE] (SEQ ID NO: 4)
(§4) Final concentration=30 nM
(§5) Final concentration for IC50 determination=10 μM (FLT3-D835Y or FLT3-ITD) or 100 μM (c-KIT)
(§6) AlphaScreen® Phosphotyrosine (PY20) Assay Kit
(§7) Final concentration=10 μg/mL
(§8) Dilute compounds in DMSO to 20× final concentration.
(§9) Add 1 μl of compound to each well of 384 well reaction plate (Perkin Elmer #6005359).
(§10) Mix enzyme and Poly (Glu4-Tyr) Peptide substrate at 1.33× final concentration in assay buffer.
(§11) Mix ATP at 5× final concentration in assay buffer.
(§12) Add 15 μL enzyme/substrate mixture to the reaction plate.
(§13) Add 4 μL of ATP to the reaction plate.
(§14) Mix Streptavidin Donor beads at 6× final concentration in Stop/Detection buffer.
(§15) Add 5 μL Streptavidin Donor beads to the reaction plate. Centrifuge 1 minute, shake to mix, and incubate at room temperature for 20 minutes.
(§16) Mix Anti-Phosphotyrosine (PY20) Acceptor beads at 6× final concentration in Stop/Detection buffer.
(§17) Add 5 μL Anti-Phosphotyrosine (PY20) beads to the reaction plate.
(§18) Centrifuge 1 minute, shake to mix, and incubate at room temperature for 60 minutes.
(§19) Read plate on Wallac EnVision™ 2103 Multilabel Reader.

Assay [2] deals with T2, FLT3-ITD (Homo sapiens, UniProt P36888).
T2 sequence (P36888 1-993): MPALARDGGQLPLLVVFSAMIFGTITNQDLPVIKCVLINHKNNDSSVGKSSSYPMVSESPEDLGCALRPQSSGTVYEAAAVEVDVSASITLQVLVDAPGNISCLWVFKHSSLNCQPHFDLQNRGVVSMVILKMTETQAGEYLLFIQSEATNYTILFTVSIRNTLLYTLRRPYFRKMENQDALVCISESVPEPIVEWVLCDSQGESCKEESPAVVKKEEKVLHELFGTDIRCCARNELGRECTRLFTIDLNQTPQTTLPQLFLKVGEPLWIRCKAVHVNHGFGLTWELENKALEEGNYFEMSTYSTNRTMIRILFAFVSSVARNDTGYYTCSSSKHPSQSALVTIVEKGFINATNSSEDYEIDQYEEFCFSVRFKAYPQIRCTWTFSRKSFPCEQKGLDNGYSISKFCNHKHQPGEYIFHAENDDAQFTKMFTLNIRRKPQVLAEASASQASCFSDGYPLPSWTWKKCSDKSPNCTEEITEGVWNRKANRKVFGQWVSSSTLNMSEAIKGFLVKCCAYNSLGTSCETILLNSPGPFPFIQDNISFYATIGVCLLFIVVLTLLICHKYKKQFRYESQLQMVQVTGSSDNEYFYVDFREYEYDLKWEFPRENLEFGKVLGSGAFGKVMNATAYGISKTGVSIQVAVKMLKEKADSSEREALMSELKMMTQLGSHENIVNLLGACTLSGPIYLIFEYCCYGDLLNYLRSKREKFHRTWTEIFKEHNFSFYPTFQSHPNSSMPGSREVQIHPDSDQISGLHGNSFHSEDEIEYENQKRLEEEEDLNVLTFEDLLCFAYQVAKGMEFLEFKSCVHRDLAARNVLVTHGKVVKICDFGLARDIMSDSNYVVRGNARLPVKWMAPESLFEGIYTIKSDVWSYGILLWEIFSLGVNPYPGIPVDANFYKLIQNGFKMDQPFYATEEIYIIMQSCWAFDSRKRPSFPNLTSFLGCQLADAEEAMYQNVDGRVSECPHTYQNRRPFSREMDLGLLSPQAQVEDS
The experiment in a line: AlphaScreen kinase assay with recombinant enzyme, FLT3-ITD. Format: biochemical. As to conditions: 8pt; read-out: FLT3_ITD 8pt: IC50. How it is done: as §1, §2, §3, §4, §5, §6, §7, §8, §9, §10, §11, §12, §13, §14, §15, §16, §17, §18, §19

Broadly, the IC50 is the point on the concentration scale where inhibition reaches its midpoint.

SMILES strings stand for the structures.

Turning to `N#CCCNC(=O)c1cccc(-c2cnc3[nH]c(-c4ccccc4)cc3c2)n1` [Compound P-0099, N-(2-cyanoethyl)-6-(2-phenyl-1H-pyrrolo[2,3-b]pyridin-5-yl)pyridine-2-carboxamide], the IC50 in assay [1] and in assay [2] was 0.0001 to 10 µM in each case.

As for `N#CC1(CNC(=O)c2cccc(-c3cnc4[nH]c(-c5ccccc5)c(Cl)c4c3)n2)CC1` [Compound P-0148, 6-(3-chloro-2-phenyl-1H-pyrrolo[2,3-b]pyridin-5-yl)-N-[(1-cyanocyclopropyl)methyl]pyridine-2-carboxamide], the half-maximal inhibitory concentration (IC50) in assay [1] and in assay [2] was 0.0001 to 10 µM throughout.

Regarding `CC(C)(C#N)CNC(=O)c1cccc(-c2cnc3[nH]c(-c4cnn(C(F)F)c4)cc3c2)n1` [Compound P-0153, N-(2-cyano-2-methyl-propyl)-6-[2-[1-(difluoromethyl)pyrazol-4-yl]-1H-pyrrolo[2,3-b]pyridin-5-yl]pyridine-2-carboxamide], the IC50 in assay [1] and in assay [2] was 0.0001 to 10 µM throughout. In the case of `O=C(c1cccc(-c2cnc3[nH]c(-c4cnn(CC(F)(F)F)c4)cc3c2)n1)N1CCC(F)(F)C1` [Compound P-0112, (3,3-difluoropyrrolidin-1-yl)-[6-[2-[1-(2,2,2-trifluoroethyl)pyrazol-4-yl]-1H-pyrrolo[2,3-b]pyridin-5-yl]-2-pyridyl]methanone], the IC50 in assay [1] and in assay [2] was 0.0001 to 10 µM each time. Regarding `N#CC1(CNC(=O)c2cccc(-c3cnc4[nH]c(-c5ccccc5)cc4c3)n2)CC1` [Compound P-0137, N-[(1-cyanocyclopropyl)methyl]-6-(2-phenyl-1H-pyrrolo[2,3-b]pyridin-5-yl)pyridine-2-carboxamide], the IC50 in assay [1] and in assay [2] was 0.0001 to 10 µM each time.

With `CC(C)(C#N)NC(=O)c1cccc(-c2cnc3[nH]c(-c4cnn(C5CCNCC5)c4)cc3c2)n1` [Compound P-0187, N-(1-cyano-1-methyl-ethyl)-6-[2-[1-(4-piperidyl)pyrazol-4-yl]-1H-pyrrolo[2,3-b]pyridin-5-yl]pyridine-2-carboxamide], the IC50 in assay [1] and in assay [2] was 0.0001 to 10 µM throughout. On to `CC(C)(C#N)NC(=O)c1cccc(-c2cnc3[nH]c(-c4cnn(CCC#N)c4)cc3c2)n1` [Compound P-0170, 6-[2-[1-(2-cyanoethyl)pyrazol-4-yl]-1H-pyrrolo[2,3-b]pyridin-5-yl]-N-(1-cyano-1-methyl-ethyl)pyridine-2-carboxamide], for which the IC50 in assay [1] and in assay [2] was 0.0001 to 10 µM in each case.

Regarding `CC(C)(C#N)NC(=O)c1cccc(-c2cnc3[nH]c(-c4cnn(C5CC5)c4)cc3c2)n1` [Compound P-0165, N-(1-cyano-1-methyl-ethyl)-6-[2-(1-cyclopropylpyrazol-4-yl)-1H-pyrrolo[2,3-b]pyridin-5-yl]pyridine-2-carboxamide], the half-inhibitory concentration (IC50) in assay [1] and in assay [2] was 0.0001 to 10 µM each time. As for `N#CCCNC(=O)c1cccc(-c2cnc3[nH]c(-c4ccccc4)c(Cl)c3c2)n1` [Compound P-0125, 6-(3-chloro-2-phenyl-1H-pyrrolo[2,3-b]pyridin-5-yl)-N-(2-cyanoethyl)pyridine-2-carboxamide], the IC50 in assay [1] and in assay [2] was 0.0001 to 10 µM in each case.

For `CC(C)(O)CNC(=O)c1cccc(-c2cnc3[nH]c(-c4ccccc4)cc3c2)n1` [Compound P-0150, N-(2-hydroxy-2-methyl-propyl)-6-(2-phenyl-1H-pyrrolo[2,3-b]pyridin-5-yl)pyridine-2-carboxamide], the IC50 in assay [1] and in assay [2] was 0.0001 to 10 µM throughout. As to `Cc1nn(C(C)C)cc1-c1cc2cc(-c3cccc(C(=O)NC(C)(C)C#N)n3)cnc2[nH]1` [Compound P-0178, N-(1-cyano-1-methyl-ethyl)-6-[2-(1-isopropyl-3-methyl-pyrazol-4-yl)-1H-pyrrolo[2,3-b]pyridin-5-yl]pyridine-2-carboxamide], the IC50 in assay [1] and in assay [2] was 0.0001 to 10 µM throughout. Turning to `CC(C)(C#N)NC(=O)c1cccc(-c2cnc3[nH]c(-c4cn[nH]c4)cc3c2)n1` [Compound P-0183, N-(1-cyano-1-methyl-ethyl)-6-[2-(1H-pyrazol-4-yl)-1H-pyrrolo[2,3-b]pyridin-5-yl]pyridine-2-carboxamide], the concentration for half-maximal inhibition (IC50) in assay [1] and in assay [2] was 0.0001 to 10 µM in each case. As for `O=C(NC1(C(F)(F)F)CCCC1)c1cccc(-c2cnc3[nH]c(-c4ccccc4)cc3c2)n1` [Compound P-0149, 6-(2-phenyl1H-pyrrolo[2,3-b]pyridin-5-yl)-N-[1-(trifluoromethyl)cyclopentyl]pyridine-2-carboxamide], the IC50 in assay [1] and in assay [2] was 0.0001 to 10 µM each time. Regarding `N#CCCNC(=O)c1cccc(-c2cnc3[nH]c(-c4ccccc4)c(Br)c3c2)n1` [Compound P-0147, 6-(3-bromo-2-phenyl-1H-pyrrolo[2,3-b]pyridin-5-yl)-N-(2-cyanoethyl)pyridine-2-carboxamide], the IC50 in assay [1] and in assay [2] was 0.0001 to 10 µM each time. As to `C#Cc1cc2cc(-c3cccc(C(=O)NC(C)(C)C#N)n3)cnc2[nH]1` [Compound P-0175, N-(1-cyano-1-methyl-ethyl)-6-(2-ethynyl-1H-pyrrolo[2,3-b]pyridin-5-yl)pyridine-2-carboxamide], the half-inhibitory concentration (IC50) in assay [1] and in assay [2] was 0.0001 to 10 µM throughout. For the compound `N#CC1CCN(S(=O)(=O)c2cccc(-c3cnc4[nH]c(-c5ccccc5)cc4c3)n2)C1` (stereo not shown) [Compound P-0121, 1-[[6-(2-phenyl-1H-pyrrolo[2,3-b]pyridin-5-yl)-2-pyridyl]sulfonyl]pyrrolidine-3-carbonitrile], in assay [1], the IC50 was in the range of 0.0001 to 10 µM.
